From paper PMC6776562, “Inhibition of Rac1-dependent forgetting alleviates memory deficits in animal models of Alzheimer’s disease” (Protein & Cell, 2019) come the findings set out here.

Entries after “also recorded” stand apart in the source; their conditions may differ.

The subject of one data set is APP/PS1 mice. In words: Morris water maze (MWM) spatial learning in AD mice. Format: in vivo, mouse. Here is the method:
(§1) Mice were treated with EHop-016 (10 mg/kg), CS7170 (50 mg/kg), CS7171 (50 mg/kg), and JKF-034 (40 mg/kg). These drugs were dissolved in saline (0.9% NaCl) containing 0.5% Tween-80 (Sigma P4780). Each mouse received 200 μL of the solution by intragastric administration once per day (administered at 9:00 am). The drug administration was started seven days before the beginning of the Morris water maze (MWM) task and was continued until the end of the assay. All control groups were fed with vehicle solution.
The MWM test, a classic paradigm used to study spatial reference memory, was performed (Vorhees and Williams, [2006]). Briefly, a circular polypropylene water tank (120 cm in diameter) was filled with opaque water and milk (20 °C ± 1 °C) and a transparent platform (15 cm diameter) was submerged (2 cm below the water surface) in the center of one of the four virtually divided quadrants. Distal cues were fixed on the wall of the tank as spatial references. For the classic training paradigm (Figs. 2 and 6), mice were allowed to find the platform within 60 s and to remain on it for at least 5 s. For the modified training paradigm (Fig. 3A), mice were trained over 5 consecutive sessions with a 1-h intervals within one day. After training, mice were returned to their home cages and the memory of the location of the platform was tested at 6 h after training (Fig. 3C–D). A mouse behavior tracking software (ANY-maze software) was used to record data automatically.

Data set [1] addresses Rac1 (Mus musculus, UniProt P63001). In words: Rac1 activity (Rac1-GTP/total Rac1) in hippocampal tissue by PAK-PBD pull-down and Western blot after drug administration. Format: in vivo, APP/PS1 mice. Here is the method:
We first assayed Rac1 activity in hippocampal tissues from AD patients and healthy age-matched, non-demented controls (Detailed information is provided in Table 1). The levels of the guanosine triphosphate (GTP)-bound active form of Rac1 were measured using the p21-binding domain (PBD) pull-down assay. The GTP-bound active form of Rac1 was pulled down through the interactive p21-activated kinase (PAK) fragment using PAK-PBD beads and measured using a Western blot assay (Fig. 1A), as described in previous studies (Shuai et al., [2010]; Liu et al., [2016]) from our laboratory and studies conducted by other research groups (Sander et al., [1998]; Barnes et al., [2008]). The total amount of Rac1 and actin were also evaluated using the Western blot analyses (See MATERIALS AND METHODS). […] Since there were no significant differences in total Rac1 levels between the experimental and control groups (See representative Western blot in all relevant figures), the ratio of Rac1-GTP to total Rac1 was taken as a measure of Rac1 activity. […] Consistent with this observation, Rac1 activity was also elevated in the hippocampus of APP/PS1 mice at different age (Fig. 1D). […] This increase was more pronounced in older flies (Fig. S1F).
as §1
The hippocampal tissues from human subjects and mice were harvested and stored in a liquid nitrogen tank for biochemical assay. The tissues were homogenized in cold lysis buffer (Merck-Millipore, 20-168). The insoluble debris were removed after centrifugation at 13,000 rpm (for 10 min, at 4 °C). For GTP-bound Rac/Cdc42, lysates were incubated with GST-tagged PAK (p21-activated kinase)-PBD agarose beads (Cytoskeleton, PAK02) overnight at 4 °C. On the second day, the beads were washed three times with lysis buffer before subjecting them to SDS-PAGE (15%) and transferring them onto nitrocellulose membranes (Millipore, HATF00010). The membranes were incubated with primary antibodies (for Rac1: BD Transduction Laboratories, #610650, 1:2,000 dilution; for Cdc42, Santa Cruz Biotechnology, lot No. sc-8401, 1:500 dilution) overnight at 4 °C and with HRP-conjugated goat anti-mouse IgG (Cell Signaling Technology, #7076) for 1 h at room temperature. Intensities of the detected bands were analyzed using ImageJ software (National Institutes of Health). The total amount of Rac1 in the lysate was detected using a routine Western blot procedure. RhoA-GTP levels were measured by using the Rho-GTP monoclonal antibody (New East, lot No. 26904, Dilution: 1:1,000). Information regarding the other antibodies used is as follows: anti-RhoA (67B9), Cell Signaling, lot No. #2117, dilution: 1:1,000; anti-Actin, Clone C4, Millipore, lot No. #3018859, dilution: 1:2,000; anti-Amyloid 1-42 6E10, BioLegend, lot No. 803001, dilution: 1:1,000; anti-Phospho-PAK1 (Ser144)/PAK2 (Ser141), Cell Signaling, lot No. #2606, dilution: 1:1,000.

Data set [2] deals with Rac1 (Drosophila melanogaster, UniProt P40792). Kind of data set: Rac1 activity in fly whole brain lysate by Western blot. Format: in vivo. Particulars: AD flies; EHop-016 100 μmol/L. Here is the method: (§2) Flies were treated with EHop-016 (Yong-Can Biotech). The EHop-016 was dissolved in dimethyl sulfoxide (DMSO; Sigma, D8418-100ML) to make a 10-mmol/L stock solution. This solution was stored at −20 °C for later use. Before administration, 4% (m/v) sucrose solution was used to dilute the stock solution to a concentration of 100 µmol/L (working solution). After the flies were starved for 3 h in empty vials, they were fed with the working solution for 5 h. Feeding was carried out once per day until testing.
The hippocampal tissues from human subjects and mice were harvested and stored in a liquid nitrogen tank for biochemical assay. The tissues were homogenized in cold lysis buffer (Merck-Millipore, 20-168). The insoluble debris were removed after centrifugation at 13,000 rpm (for 10 min, at 4 °C). For GTP-bound Rac/Cdc42, lysates were incubated with GST-tagged PAK (p21-activated kinase)-PBD agarose beads (Cytoskeleton, PAK02) overnight at 4 °C. […] Intensities of the detected bands were analyzed using ImageJ software (National Institutes of Health). The total amount of Rac1 in the lysate was detected using a routine Western blot procedure. RhoA-GTP levels were measured by using the Rho-GTP monoclonal antibody (New East, lot No. 26904, Dilution: 1:1,000). […]

Data set [3] concerns Aβ42 transgenic flies (elav/Y; UAS-Aβ42/+). Kind of data set: Pavlovian olfactory aversive conditioning in AD flies. To be noted: AD flies fed 100 μmol/L EHop-016 for 7 days. In kind it is in vivo, Drosophila. The protocol:
as §2
To assess learning and memory, flies underwent classic olfactory aversive conditioning. One- to two-day-old flies were collected and fed with EHop-016 (100 µmol/L) for 7 days. Training and testing were performed at 24 °C with 60% relative humidity. During training, about 100 flies were exposed to an electric shock (unconditioned stimulus [US]) paired with either 3-octanol (>95% purity; Fluka, Sigma-Aldrich) or 4-methylcyclohexanol (>99% purity; Fluka, Sigma-Aldrich) as the conditioned stimulus (CS). Performance was tested using a T-maze apparatus within which 3-octanol and 4-methylcyclohexanol were delivered from opposite arms simultaneously. […] The learning score was calculated as the difference between the number of flies in each arm divided by the sum of flies in both arms immediately after training. Performance index was calculated as the average of two reciprocal tests to avoid odor bias. […]

The test system of data set [4] is LTP in hippocampal slices of APP/PS1 mice. In words: Long-term potentiation (fEPSP recording) in hippocampal slices. In kind it is cell-based, mouse. Particulars: brain slices of 6-month-old APP/PS1 mice; EHop-016 10 μmol/L in ACSF. Here is the method:
Acute 300-μm transverse hippocampal slices were prepared using a vibratome (VTS3000, USA). The slices were maintained at room temperature in a submersion chamber in artificial cerebrospinal fluid (ACSF) containing 125 mmol/L NaCl (Sigma, 71376), 2.5 mmol/L KCl (Sigma, P9541), 2 mmol/L CaCl2 (Sigma, 499609), 1 mmol/L MgCl2 (Sigma, M1028), 1.25 mmol/L NaH2PO4 (Sigma, S3139), 24 mmol/L NaHCO3 (Sigma, S5761) (pH = 7.4), and 15 mmol/L glucose (Sigma, G8270), bubbled with 95% O2 and 5% CO2. Slices were incubated for at least 1 h before removal for experiments. Slices were kept in the MED probe for 1 h for attachment to the 16-channel array (MED-PG515A, Alpha MED Sciences; preheated to 33 °C). Extracellular field excitatory post-synaptic potentials (fEPSPs) in the Schaffer collateral pathway were evoked at 0.025 Hz and recorded in the CA1. The fEPSPs were evoked using a stimulation intensity that elicited a 30% maximal response. Data acquisition and analysis were performed using the multi-electrode MED64 hardware and software package (Panasonic). Additional analyses were performed using custom macros running under Igor Pro. The LTP was induced by one train of theta burst stimulation (TBS) consisting of one epoch of 10 trains of five bursts repeated at 5 Hz and delivered at the same intensity as in the baseline recordings. […]

Data set [5] can be described thus: In vitro metabolic stability in mouse liver microsomes. Format: in vitro ADME. The protocol: (§3) Measurements of metabolic stability can be performed with liver microsomes, which are known to contain the major drug-metabolizing enzymes and UDP-glucuronosyltransferase (Baranczewski et al., [2006]). The in vitro metabolic stability levels of CS7171 and JKF-034 were measured using human, monkey, and mouse liver microsomes. The metabolic half-time (T1/2) and intrinsic clearance (Clint) were assayed using LC-MS analysis. Ketanserin is a potent, orally effective antagonist of endogenous serotonin. Its pharmacological profile is well studied (Brogden and Sorkin, [1990]). In this study, we used ketanserin as a control. If the T1/2 of the tested compound was 30–120 min, the compound was considered to show moderate metabolism in liver microsomes. If the T1/2 value was less than 30 min, the compound was considered to be susceptible to metabolism in liver microsomes.

Data set [6] in a line: In vitro metabolic stability in monkey liver microsomes. In kind it is in vitro ADME. Here is the method:
as §3

Data set [7] can be described thus: In vitro metabolic stability in human liver microsomes. In kind it is in vitro ADME. The protocol: as §3
Data set [8] can be described thus: In vitro blood-brain barrier permeability assay. In kind it is in vitro ADME. Particulars: dog, 37 °C, MDR-MDCK. The protocol:
The MDR-MDCK cell line can be used as a fast blood-brain barrier (BBB) model to aid drug discovery (Wang et al., [2005]). In this study, the MDR-MDCK cell line was used to evaluate the permeability coefficients of CS7171 and JKF-034. Briefly, CS7171 and JKF-034 were prepared to final concentrations of 5 μmol/L. The cells were dosed on the basolateral side (B-A) and apical side (A-B) and incubated at 37 °C for 90 min. Each test was performed in duplicate. The apparent permeability coefficient, Papp, was calculated using the following formula: Papp=VA/Area×Time×(drugacceptor,90-min/drugdonor,0-min×Dilution Factor
VA is the volume in the acceptor well, Area is the surface area of the membrane, Time is the total transport time in seconds, [drug]donor, 0-min is the donor drug concentration measured at 0 min; [drug]acceptor, 90-min is the acceptor drug concentration measured at 90 min; dilution factor is the degree of dilution of the donor sample before loading to LC-MS/MS.

A further data set concerns Rac1 in HEK-293 cells. Kind of data set: Rac1 activation in cultured cells detected by G-LISA. Particulars: 10 μg/mL Aβ42 oligomers in culture medium for 2 h. Format: cell-based. The protocol: Synthetic wide-type Aβ42 (purchased from AnaSpec) was initially dissolved in hexafluoroisopropanol (Sigma) to 5 mg/mL for subpackaging. Hexafluoroisopropanol was removed by air drying to obtain an Aβ42 peptide film, which was stored at −80 °C. Then, 24 h before the experiment, the peptide film was first re-suspended in DMSO to a concentration of 12.5 mg/mL and then diluted with Dulbecco’s Modified Eagle Medium (DMEM)/F-12 (phenol red-free; Invitrogen) to a final concentration of 500 μg/mL. The HEK-293 cells were cultured in DMEM containing 10% fetal bovine serum (FBS) at 37 °C with 5% CO2. For oligomer treatment, cells were washed with fresh medium and incubated with 10 μg/mL Aβ42 oligomers for 2 h. Cells were washed twice with PBS before they are collected for Rac1 activity detection by G-LISA (BK128, Cytoskeleton) in accordance with the manufacturer’s protocol.

[9] abbreviates: APP/PS1 mice (eight-month-old), oral CS7171 50 mg/kg, CS7170 50 mg/kg, JKF-034 40 mg/kg once per day.

Consider `COc1cc(C=C2C(=O)NN(c3ccc(Cl)c(Cl)c3)C2=O)ccc1O` [CS7170], for which, in the data set on APP/PS1 mice (setting [9]), the “MWM learning deficit / spatial memory” value is listed as “not”. The “hippocampal Rac1 activity (Rac1-GTP/total Rac1)” value on Rac1 [1] (setting [9]) was “not and unable to inhibit Rac1 activity”.

As for `CCn1c2ccccc2c2cc(Nc3ccnc(NCCCN4CCOCC4)n3)ccc21` [EHop-016], at Rac1 [2], the “Rac1 activity in whole brain lysis” value is on record as “reduced Rac1 activity; also recorded: inhibition of Rac1 activity” and the “total Rac1 expression” value is “without changing the total Rac1 expression”. In addition, the “learning defect in aversive olfactory conditioning” value in data set [3] was “significantly rescued the learning defects; also recorded: rescued the learning defect”. Also, the “MWM escape latency / learning deficit” value with APP/PS1 mice (9-month-old APP/PS1 mice, EHop-016 10 mg/kg, versus vehicle-treated AD mice, 10 mg/kg) is recorded as “took less time to locate the hidden platform; also recorded: did not significantly differ from that of WT mice; also recorded: mitigated the learning deficit”. The “LTP maintenance (fast decay after TBS)” value in [4] is “The fast decay was rescued; also recorded: attenuated”. Further, at Rac1 [1] (9-month-old AD mice, EHop-016 10 mg/kg), the “total Rac1 expression in hippocampal tissues” value is listed as “without changing total Rac1 expression”. Besides, the “Rac1 activity (Rac1-GTP/Total Rac1) in hippocampal tissues” value at Rac1 [1] (9-month-old AD mice, EHop-016 10 mg/kg, intragastric once per day, 10 days, 10 mg/kg) is recorded as “significantly inhibited Rac1 activity; also recorded: inhibition of Rac1 activity”.

With `O=C(c1ccc(F)cc1)C1CCN(CCn2c(=O)[nH]c3ccccc3c2=O)CC1` [Ketanserin, reference compound], the CLint scaled in [5] was determined as 312 mL/min/kg; in [6], 111 mL/min/kg; in data set [7] it was 39.5 mL/min/kg. Further, the results for the half-life in data set [5], in data set [6] and in data set [7] were 17.5 min, 18.3 min and 44.1 min, respectively.

Turning to `COCCc1ccc(OCC(O)CNC(C)C)cc1` (stereo not drawn) [Metoprolol, reference compound], the apical-to-basolateral permeability (Papp A→B) at 90 min, 5 μmol/L in data set [8] (MDCK-MDR1, A-B) was 40.5 ×10⁻⁶ cm/s. For the same molecule, the Papp B→A at 90 min, 5 μmol/L in [8] (MDCK-MDR1, B-A) was determined as 28.6 ×10⁻⁶ cm/s.

Turning to Amyloid-beta 42 [Aβ42], in the data set on Rac1 in HEK-293 cells, the “Rac1 activity in HEK-293 cells” value was “capable of stimulating Rac1 activity”.
